# Values of other authors as cited in patent publication US11134689B2, “Natural volatile plant oils to repel arthropods” (Shepard Farms, LLC, priority 2011, dated 2021).
# Tested on: fruit fly (Ceratitis capitata)
# Conditions: in vivo
smiles,measurement,value
"CC12CCC(CC1)C(C)(C)O2 [1,8-cineole]",insecticidal activity,high insecticidal activity
